Measurements taken from the NIST ThermoML archive (doi:10.1016/j.jct.2008.03.007).
± gives the expanded uncertainty stated by the source.

Key:
[1] = 101.33 kPa, Liquid, Vibrating tube method
[2] = xn = mol fraction of the nth substance listed; details: 101 kPa, Liquid; for mass density: Vibrating tube method

CCCO [propan-1-ol]
[1]
Details | mass density [kg/m3]
298.15 K | 799.4 ± 6
303.15 K | 796.4 ± 6
313.15 K | 788.6 ± 6

CO [methanol]
[1]
Details | mass density [kg/m3]
298.15 K | 786 ± 6
303.15 K | 783.4 ± 6
313.15 K | 774.6 ± 6

CCCCCCCC[N+](C)(CCCCCCCC)CCCCCCCC.O=S(=O)([N-]S(=O)(=O)C(F)(F)F)C(F)(F)F + CCO
[2]
Details | mass density, 298.15 K [kg/m3] | mass density, 303.15 K [kg/m3] | mass density, 313.15 K [kg/m3] | speed of sound, 298.15 K [m/s]
x1 = 0.0484 | 896 ± 6 | 896 ± 6 | 883 ± 6 | –
x1 = 0.1731 | 1005 ± 6 | 1003 ± 6 | 994 ± 6 | 1116.1 ± 6.5
x1 = 0.2728 | 1041 ± 6 | 1036 ± 6 | 1029 ± 6 | 1098.8 ± 6.4
x1 = 0.3353 | 1055 ± 6 | 1050 ± 6 | 1044 ± 6 | 1087.9 ± 6.4
x1 = 0.4286 | 1070 ± 6 | 1063 ± 6 | 1058 ± 6 | 1071.6 ± 6.4
x1 = 0.5145 | 1080 ± 6 | 1072 ± 6 | 1068 ± 6 | 1056.6 ± 6.3
x1 = 0.6307 | 1090 ± 6 | 1082 ± 6 | 1078 ± 6 | 1036.4 ± 6.3
x1 = 0.7338 | 1097 ± 6 | 1090 ± 6 | 1085 ± 6 | 1018.4 ± 6.3
x1 = 0.7774 | 1099 ± 6 | 1092 ± 6 | 1087 ± 6 | 1010.8 ± 6.3
x1 = 0.9393 | 1107 ± 6 | – | – | –
x1 = 0.9493 | – | 1103 ± 6 | 1096 ± 6 | 980.8 ± 6.2

CCCCCCCC[N+](C)(CCCCCCCC)CCCCCCCC.O=S(=O)([N-]S(=O)(=O)C(F)(F)F)C(F)(F)F + CO
[2]
Details | mass density, 298.15 K [kg/m3] | mass density, 303.15 K [kg/m3] | mass density, 313.15 K [kg/m3] | speed of sound, 298.15 K [m/s]
x1 = 0.0336 | – | – | – | 1097.8 ± 6.4
x1 = 0.0781 | 958 ± 6 | 954 ± 6 | 940 ± 6 | –
x1 = 0.1291 | 999 ± 6 | 994 ± 6 | 982 ± 6 | 1085.4 ± 6.4
x1 = 0.2125 | 1037 ± 6 | 1031 ± 6 | 1022 ± 6 | 1074.5 ± 6.3
x1 = 0.35 | 1068 ± 6 | 1062 ± 6 | 1055 ± 6 | –
x1 = 0.4172 | 1077 ± 6 | 1071 ± 6 | 1064 ± 6 | 1047.9 ± 6.3
x1 = 0.5362 | 1089 ± 6 | 1083 ± 6 | 1076 ± 6 | 1032.4 ± 6.2
x1 = 0.6529 | 1097 ± 6 | 1092 ± 6 | 1085 ± 6 | –
x1 = 0.6611 | – | – | – | 1016.1 ± 6.2
x1 = 0.7084 | 1100 ± 6 | 1095 ± 6 | 1088 ± 6 | 1010 ± 6.2
x1 = 0.8522 | 1106 ± 6 | 1102 ± 6 | 1095 ± 6 | 991.2 ± 6.2
x1 = 0.9345 | 1108 ± 6 | 1104 ± 6 | 1097 ± 6 | –

CCCCCCCC[N+](C)(CCCCCCCC)CCCCCCCC.O=S(=O)([N-]S(=O)(=O)C(F)(F)F)C(F)(F)F + CCCO
[2]
Details | mass density, 298.15 K [kg/m3] | mass density, 303.15 K [kg/m3] | mass density, 313.15 K [kg/m3] | speed of sound, 298.15 K [m/s]
x1 = 0.0736 | 919 ± 6 | 915 ± 6 | 907 ± 6 | 1187.7 ± 6.8
x1 = 0.1146 | 956 ± 6 | 952 ± 6 | 944 ± 6 | 1178.1 ± 6.7
x1 = 0.2152 | 1011 ± 6 | 1006 ± 6 | 999 ± 6 | 1154.7 ± 6.7
x1 = 0.3303 | 1045 ± 6 | 1041 ± 6 | 1033 ± 6 | 1127.9 ± 6.6
x1 = 0.4033 | 1059 ± 6 | 1055 ± 6 | 1047 ± 6 | 1110.9 ± 6.5
x1 = 0.524 | 1076 ± 6 | 1072 ± 6 | 1064 ± 6 | 1082.8 ± 6.5
x1 = 0.6682 | – | – | – | 1049.2 ± 6.4
x1 = 0.6882 | 1091 ± 6 | 1087 ± 6 | 1080 ± 6 | –
x1 = 0.7833 | 1098 ± 6 | 1094 ± 6 | 1087 ± 6 | 1022.4 ± 6.3
x1 = 0.8439 | 1102 ± 6 | 1097 ± 6 | 1090 ± 6 | 1008.3 ± 6.3
x1 = 0.9533 | 1107 ± 6 | 1103 ± 6 | 1096 ± 6 | 982.9 ± 6.2

CCCCCCCC[N+](C)(CCCCCCCC)CCCCCCCC.O=S(=O)([N-]S(=O)(=O)C(F)(F)F)C(F)(F)F
[1]
Details | mass density [kg/m3]
298.15 K | 1109.3 ± 6.1
303.15 K | 1105.1 ± 6.1
313.15 K | 1098.3 ± 6.1

CCO [ethanol]
[1]
Details | mass density [kg/m3]
298.15 K | 785.5 ± 6
303.15 K | 782 ± 6
313.15 K | 773.7 ± 6
